Earlier results as cited in patent US11491171B2, “Synthetic composition and method for modulating emotion and mood disorders” (GLYCOM A/S, priority 2015, dated 2022).

Test system: mice

Row | Compound | behavioural responses during stressor exposure
1 | 6′-O-sialyllactose [6′-SL] | support normal behavioural responses
2 | CC(=O)N[C@H]1[C@H]([C@H](O)[C@H](O)CO)O[C@@](O[C@H]2[C@@H](O)[C@@H](CO)O[C@@H](O[C@H]3[C@H](O)[C@@H](O)C(O)O[C@@H]3CO)[C@@H]2O)(C(=O)O)C[C@@H]1O (some centres unmarked) [3′-SL, 3′-O-sialyllactose] | support normal behavioural responses
